In data set [1] the test system is M. tuberculosis H37Rv. The experiment in a line: microbe, parasite or virus in culture. The format is cell-based, Mycobacterium tuberculosis. The settings on record: for MIC90 / IC90: Mycobacterium tuberculosis, H37RV; for MIC90: read-out: MIC (MIC90); for IC90: read-out: TB-IC90_OD GEOM_MEAN.
The conditions of data set [2]: for CL mouse MEAN: microsomes.
The test system of data set [3] is Vero cells. The experiment in a line: cells. To be noted: Chlorocebus sabaeus, read-out: VERO IC50.
Procedure: (§1) Compounds were solubilized in DMSO and assayed as a 10-point 3-fold serial dilution. Compounds were incubated with cells for 2 days at 37 °C, 5% CO2. CellTiter-Glo Reagent (Promega) was added and relative luminescent units (RLU) measured.
Data set [4] can be described thus: physchem.
The test system of data set [5] is Vero cells. To be noted: read-out: VERO IC50.
Procedure: as §1

Converted amounts (≈) assume the structure as drawn. “And” between values parts separate entries of the source, which are not always exact repeats. Equal entries are not always repeated. Where two headings read alike, the source gives them in different places. Bounds are passed on as bounds.

Regarding `NC(=O)c1sc(N2CCOCC2)cc1OCCN1CCOCC1` [Compound 47, 5-Morpholino-3-(2-morpholinoethoxy)thiophene-2-carboxamide], the MIC90 in data set [1] was over 20 µM. In data set [2] (female, CD1, mouse, pH 7.4), this compound had a Cli mouse of 0.9 mL.min^–1.g^–1. The “CL mouse MEAN” value in data set [2] (mouse) is 0.8847 mL/min/g. The IC50 in data set [3] was over 100 µM. In data set [4], this compound came in with a chromatographic logD of 0.189.
Take `NC(=O)c1nc(N2CCOCC2)ccc1OCCc1ccccc1` [Compound 57, 6-Morpholino-3-(2-phenylethoxy)pyridine-2-carboxamide]: the MIC90 in data set [1] worked out at 6.9 µM (≈ 2.26 µg/mL). Also, in data set [2] (female, CD1, mouse, pH 7.4), the Cli mouse is given as 2.3 mL.min^–1.g^–1. The “CL mouse MEAN” value in data set [2] (mouse) is listed as 2.315 mL/min/g. Further, the IC50 in data set [3] was over 100 µM. The compound also yielded a chromatographic logD in data set [4] of 1.61.
Turning to `NC(=O)c1sc(N2CCOCC2)cc1OCc1ccccc1` [Compound 48, 3-Benzyloxy-5-morpholinothiophene-2-carboxamide], the MIC90 in data set [1] was over 20 µM. In data set [2] (female, CD1, mouse, pH 7.4), this compound displayed a Cli mouse of 14 mL.min^–1.g^–1. Further, in data set [2] (mouse), the “CL mouse MEAN” value was determined as 14.31 mL/min/g. In addition, the IC50 in data set [3] was over 100 µM. The same compound gave a chromatographic logD in data set [4] of 1.52.
With `NC(=O)c1sc(N2CCOCC2)cc1CCCc1ccccc1` [Compound 49, 5-Morpholino-3-(3-phenylpropyl)thiophene-2-carboxamide], in data set [1], the MIC90 was determined as 3.5 µM (≈ 1.16 µg/mL). For the same compound, the Cli mouse in data set [2] (female, CD1, mouse, pH 7.4) is 20 mL.min^–1.g^–1. In data set [2] (mouse), the “CL mouse MEAN” value came to 20.17 mL/min/g. Also, the IC50 in data set [3] was 69 µM.
In the case of `COc1cccc(CCOc2cc(N3CCOCC3)sc2C(N)=O)c1` [Compound 41, 3-[2-(3-Methoxyphenyl)ethoxy]-5-morpholinothiophene-2-carboxamide], the MIC90 in data set [1] stood at 1.6 µM (≈ 0.58 µg/mL). The compound further came in with a Cli mouse in data set [2] (female, CD1, mouse, pH 7.4) of 10 mL.min^–1.g^–1. Besides, the “CL mouse MEAN” value in data set [2] (mouse) was found to be 10.31 mL/min/g. The IC50 in data set [3] amounted to 89 µM. This compound also registered a chromatographic logD in data set [4] of 1.85.
In the case of `N#Cc1ccc(CCOc2cc(N3CCOCC3)sc2C(N)=O)cc1` [Compound 44, 3-[2-(4-Cyanophenyl)ethoxy]-5-morpholino-thiophene-2-carboxamid], the MIC90 in data set [1] came to 14 µM (≈ 5 µg/mL). Further, the Cli mouse in data set [2] (female, CD1, mouse, pH 7.4) came out at 4.8 mL.min^–1.g^–1. Moreover, in data set [2] (mouse), the “CL mouse MEAN” value was 4.758 mL/min/g. For the same compound, the IC50 in data set [3] is over 100 µM. Also, in data set [4], the chromatographic logD is 1.56.
Consider “3-(2,2-Difluoro-2-phenylethoxy)-5-morpholinothiophene-2-carboxamide [Compound 50]”, for which the “MIC (MIC90)” value in data set [1] is >20 (2) μM. For the same compound, the IC50 in data set [5] was 95 µM. For the same compound, the “CL mouse MEAN” value in data set [2] (mouse) was 19.1 mL/min/g.
Consider `NC(=O)c1sc(N2CCOCC2)cc1OCCc1ccncc1` [Compound 43, 5-Morpholino-3-[2-(4-pyridyl)ethoxy]thiophene-2-carboxamide], for which, in data set [1], the MIC90 was over 20 µM. Also, the Cli mouse in data set [2] (female, CD1, mouse, pH 7.4) was determined as 8 mL.min^–1.g^–1. In addition, in data set [2] (mouse), the “CL mouse MEAN” value is 8.013 mL/min/g. For the same compound, the IC50 in data set [3] was over 100 µM. In data set [4], this compound returned a chromatographic logD of 0.617.
Turning to `NC(=O)c1sccc1OCCc1ccccc1` [Compound 27, 3-(2-Phenylethoxy)thiophene-2-carboxamide], in data set [1], the MIC90 was over 20 µM and the IC90 is over 20 µM. This compound showed a Cli mouse in data set [2] (female, CD1, mouse, pH 7.4) of 26 mL.min^–1.g^–1. Further, the “CL mouse MEAN” value in data set [2] (mouse) worked out at 26 mL/min/g. In addition, in data set [3], the IC50 is over 100 µM. In data set [4], this compound returned a chromatographic logD of 2.05.
As to `COc1ccc(CCOc2cc(N3CCOCC3)sc2C(N)=O)cc1` [Compound 36, 3-[2-(4-Methoxyphenyl)ethoxy]-5-morpholinothiophene-2-carboxamide], in data set [1], the MIC90 was 0.63 µM (≈ 0.228 µg/mL) and the IC90 amounted to 0.57 µM. In addition, the Cli mouse in data set [2] (female, CD1, mouse, pH 7.4) worked out at 5.7 mL.min^–1.g^–1. Moreover, the “CL mouse MEAN” value in data set [2] (mouse) was 5.742 mL/min/g. Further, in data set [3], the IC50 was over 100 µM. This compound also registered a chromatographic logD in data set [4] of 1.73.
Turning to “5-(3-Methylmorpholino)-3-phenethoxythiophene-2-carboxamide [Compound 31]”, in data set [1], the “MIC (MIC90)” value is given as >20 (2) μM. The IC50 in data set [5] was 77 µM and 79.4 µM. The “CL mouse MEAN” value in data set [2] (mouse) stood at 11.19 mL/min/g.
Turning to “5-[2-Methoxyethyl(methyl)amino]-3-(2-phenylethoxy)thiophene-2-carboxamide [Compound 32]”, the “MIC (MIC90)” value in data set [1] was >20 (3) μM. For the same compound, the IC50 in data set [5] is over 100 µM. In addition, the “CL mouse MEAN” value in data set [2] (mouse) is 28.42 mL/min/g.
`NC(=O)c1sc(N2CCOCC2)cc1OCC1CCCO1` (centres unmarked) [Compound 45, 5-Morpholino-3-((tetrahydrofuran-2-yl)methoxy)thiophene-2-carboxamide]: the MIC90 in data set [1] is over 20 µM. The same compound yielded a Cli mouse in data set [2] (female, CD1, mouse, pH 7.4) of 4.3 mL.min^–1.g^–1. Besides, the “CL mouse MEAN” value in data set [2] (mouse) amounted to 4.249 mL/min/g. In data set [3], the half-inhibitory concentration (IC50) was over 100 µM.
On to `NC(=O)c1sc(N2CCOCC2)cc1OC1CCc2ccccc21` (centres unmarked) [Compound 53, 3-Indan-1-yloxy-5-morpholinothiophene-2-carboxamide], for which the MIC90 in data set [1] is over 20 µM. Besides, the Cli mouse in data set [2] (female, CD1, mouse, pH 7.4) came to 1.4 mL.min^–1.g^–1. In addition, the “CL mouse MEAN” value in data set [2] (mouse) was determined as 1.393 mL/min/g. For the same compound, in data set [3], the IC50 was over 100 µM. This compound also gave a chromatographic logD in data set [4] of 1.15.
With `NC(=O)c1sc(N2CCOCC2)cc1OCCc1ccc(F)cc1` [Compound 40], the MIC90 in data set [1] was 0.9 µM (≈ 0.315 µg/mL). In data set [2] (female, CD1, mouse, pH 7.4), the “CL mouse MEAN” value amounted to 12.72 mL/min/g and the Cli mouse is given as 13 mL.min^–1.g^–1. Further, the IC50 in data set [3] was over 100 µM. In data set [4], this compound showed a chromatographic logD of 1.85.
For `NC(=O)c1sc(N2CCOCC2)cc1OCC(O)c1ccccc1` (centres unmarked) [Compound 51, 3-(2-Hydroxy-2-phenylethoxy)-5-morpholinothiophene-2-carboxamine], the MIC90 in data set [1] was over 20 µM. This compound gave a Cli mouse in data set [2] (female, CD1, mouse, pH 7.4) of 3.8 mL.min^–1.g^–1. Further, in data set [2] (mouse), the “CL mouse MEAN” value is on record as 3.788 mL/min/g. In addition, the IC50 in data set [3] is over 100 µM. This compound also had a chromatographic logD in data set [4] of 1.12.
As for `COc1ccccc1CCOc1cc(N2CCOCC2)sc1C(N)=O` [Compound 42, 3-[2-(2-Methoxyphenyl)ethoxy]-5-morpholinothiophene-2-carboxamide], the MIC90 in data set [1] is over 20 µM. Besides, the Cli mouse in data set [2] (female, CD1, mouse, pH 7.4) is on record as 26 mL.min^–1.g^–1. Besides, in data set [2] (mouse), the “CL mouse MEAN” value is given as 26.42 mL/min/g. Besides, the IC50 in data set [3] is over 100 µM. The chromatographic logD in data set [4] was found to be 1.95.
With `COC(=O)c1sc(N2CCOCC2)cc1OCCc1ccccc1` [Compound 14, Methyl 5-Morpholino-3-(2-phenylethoxy)thiophene-2-carboxylate], the MIC90 in data set [1] was over 20 µM. Besides, the Cli mouse in data set [2] (female, CD1, mouse, pH 7.4) amounted to 50 mL.min^–1.g^–1. The IC50 in data set [3] is over 100 µM.
Regarding `NC(=O)c1sc(N2CCOCC2)cc1OC1CCCc2ccccc21` (centres unmarked) [Compound 52, 5-Morpholino-3-tetralin-1-yloxy-thiophene-2-carboxamide], the MIC90 in data set [1] is over 20 µM. Also, the Cli mouse in data set [2] (female, CD1, mouse, pH 7.4) is on record as 5.4 mL.min^–1.g^–1. In data set [2] (mouse), the “CL mouse MEAN” value is recorded as 5.383 mL/min/g. Moreover, in data set [3], the IC50 was 56 µM. The same compound had a chromatographic logD in data set [4] of 2.22.
For `NC(=O)c1ccc(N2CCOCC2)cc1OCCc1ccccc1` [Compound 54, 4-Morpholino-2-phenethoxybenzamide], in that order: over 20 µM, 12 mL.min^–1.g^–1, 12.21 mL/min/g, over 100 µM and 2.11.

By IC50 is commonly meant the concentration at which inhibition is half-maximal. The chromatographic logD is a lipophilicity value derived from retention on a column.

(Values after article PMC6089501 (Journal of Medicinal Chemistry, 2018).)
